The values that follow come from patent publication US9282737B2, “Agent for preventing pollen dispersal” (NOF Corporation, priority 2008, dated 2016).

Data set [1] has as its system Cryptomeria japonica male flower buds and needle leaves. In words: Evaluation 1: immersion test of Cryptomeria japonica. The protocol: Evaluation 1 (Immersion Test of Cryptomeria japonica)
First, as agents to be used for an immersion test of Cryptomeria japonica, fatty acid derivative, fatty acid, polyoxyalkylene derivative, fats and oils and the like shown in Tables 1 and 2 were prepared. Next, many branches (length about 10 cm) of Cryptomeria japonica with 15 male flower buds on the tip were taken from the same tree of Cryptomeria japonica, and each group (five leaves for one group) was immersed in the agents (100 ml) of Tables 1 and 2. After immersing for about 1 min, the branches were taken out from the liquid and placed in a beaker. Browning changes were inspected visually on the male flower buds and needle leaves after one week. The test was performed using Cryptomeria japonica of August and November.

A short description of another data set: HLB of agent. It is filed as physicochemical.
The mark [2] stands for this setting: branches of August, immersed about 1 min in agent, browning inspected visually after one week.
Setting [3] is: branches of November, immersed about 1 min in agent, browning inspected visually after one week.

“Also recorded” adds a separate entry of the source.

Regarding “polyoxyethylene sorbitol [Comparative Example 6]”, in data set [1] (setting [2]), the “change of state of male flower bud (August)” value is “not influenced; also recorded: no change” and the “change of state of needle leaf (August)” value was “not influenced; also recorded: no change”. Also, in data set [1] (setting [3]), the “change of state of male flower bud (November)” value is “not influenced; also recorded: no change” and the “change of state of needle leaf (November)” value was “not influenced; also recorded: no change”.
As to `CCCCCCCC/C=C\CCCCCCCC(=O)O` [Comparative Example 1, oleic acid], the “change of state of male flower bud (August)” value in data set [1] (setting [2]) was “markedly browned”. For the same compound, in data set [1] (setting [3]), the “change of state of male flower bud (November)” value is “no effect; also recorded: no change”. In data set [1] (in vivo), the “change of state of needle leaf (August)” value is “no change” and the “change of state of needle leaf (November)” value is given as “no change”.
“methoxypolyoxyethylene oleic acid ester [Example 3]”: the “change of state of male flower bud (August)” value in data set [1] (setting [2]) is “browned”. Besides, the “change of state of male flower bud (November)” value in data set [1] (setting [3]) is “browned”. In data set [1] (in vivo), the “change of state of needle leaf (August)” value was “no change” and the “change of state of needle leaf (November)” value is listed as “no change”.
With “polyoxyethylene sorbitol linoleic acid ester [Example 7]”, the “change of state of male flower bud (August)” value in data set [1] (setting [2]) is given as “browned”. In addition, the “change of state of male flower bud (November)” value in data set [1] (setting [3]) is on record as “browned”. For the same compound, in data set [1] (in vivo), the “change of state of needle leaf (August)” value is given as “ho change” and the “change of state of needle leaf (November)” value was “no change”.
Regarding `CCCCC/C=C\C/C=C\CCCCCCCC(=O)O` [compound 3, linoleic acid], in data set [1] (setting [2]), the “change of state of male flower bud (August)” value was “markedly browned”. In addition, in data set [1] (setting [3]), the “change of state of male flower bud (November)” value is listed as “no effect; also recorded: no change”. In addition, in data set [1] (in vivo), the “change of state of needle leaf (August)” value is listed as “no change” and the “change of state of needle leaf (November)” value is given as “no change”.
For “polyoxyethylene sorbitan palmitic acid ester [compound 7]”, the “change of state of male flower bud (August)” value in data set [1] (setting [2]) is listed as “no effect; also recorded: no change”. For the same compound, the “change of state of male flower bud (November)” value in data set [1] (setting [3]) is “no effect; also recorded: no change”.
For the compound “polyoxyethylene linoleic acid ester [Example 2]”, the HLB result in the data set “HLB of agent” was “(HLB = 10.2)”. In addition, the “change of state of male flower bud (August)” value in data set [1] (setting [2]) is recorded as “markedly browned”. The “change of state of male flower bud (November)” value in data set [1] (setting [3]) was “markedly browned”. In data set [1] (in vivo), the “change of state of needle leaf (August)” value is reported as “no change” and the “change of state of needle leaf (November)” value is listed as “no change”.
Take sunflower oil [compound 9]: in data set [1] (in vivo), the “change of state of needle leaf (August)” value is on record as “no change” and the “change of state of needle leaf (November)” value is given as “no change”.
On to “polyoxyethylene-block-polyoxypropylene oleic acid ester [Example 5]”, for which, in data set [1] (setting [2]), the “change of state of male flower bud (August)” value is listed as “browned”. The “change of state of male flower bud (November)” value in data set [1] (setting [3]) was “browned”. In addition, in data set [1] (in vivo), the “change of state of needle leaf (August)” value is given as “no change” and the “change of state of needle leaf (November)” value is recorded as “no change”.
Regarding “polyoxyethylene stearic acid ester [compound 4]”, the “change of state of male flower bud (August)” value in data set [1] (setting [2]) is “no effect; also recorded: no change”. Besides, in data set [1] (setting [3]), the “change of state of male flower bud (November)” value is “no effect; also recorded: no change”.
Consider `CCCCCCCC/C=C\CCCCCCCC(=O)[O-].[Na+]` [compound 2, sodium oleate], for which, in data set [1] (setting [2]), the “change of state of male flower bud (August)” value is “markedly browned” and the “change of state of needle leaf (August)” value was “no change”. In data set [1] (setting [3]), the “change of state of male flower bud (November)” value is given as “no effect; also recorded: no change” and the “change of state of needle leaf (November)” value is “no change”.
Take “polyoxyethylene methylglucoside oleic acid ester [Example 8]”: the “change of state of male flower bud (August)” value in data set [1] (setting [2]) is recorded as “browned”. In addition, the “change of state of male flower bud (November)” value in data set [1] (setting [3]) was “browned”. For the same compound, in data set [1] (in vivo), the “change of state of needle leaf (August)” value was “no change” and the “change of state of needle leaf (November)” value is “no change”.
Take “polyoxyethylene linolenic acid ester [Comparative Example 5]”: the “change of state of male flower bud (August)” value in data set [1] (setting [2]) is “an effect was obtained; also recorded: markedly browned”. The “change of state of male flower bud (November)” value in data set [1] (setting [3]) is reported as “an effect was obtained; also recorded: markedly browned”.
In the case of “polyoxyethylene oleic acid ester [Example 1]”, in data set [1] (setting [2]), the “change of state of male flower bud (August)” value is given as “browned” and the “change of state of needle leaf (August)” value is on record as “no change”. In data set [1] (setting [3]), the “change of state of male flower bud (November)” value was “browned” and the “change of state of needle leaf (November)” value is recorded as “no change”.
With “polyoxyethylene glycerol linoleic acid ester [Example 9]”, the “change of state of male flower bud (August)” value in data set [1] (setting [2]) is on record as “browned”. The “change of state of male flower bud (November)” value in data set [1] (setting [3]) is reported as “browned”. For the same compound, in data set [1] (in vivo), the “change of state of needle leaf (August)” value is reported as “no change” and the “change of state of needle leaf (November)” value is reported as “no change”.
Regarding “polyoxyethylene dilinoleic acid ester [Example 4]”, in data set [1] (setting [2]), the “change of state of male flower bud (August)” value is “markedly browned”. Also, in data set [1] (setting [3]), the “change of state of male flower bud (November)” value is recorded as “markedly browned”. Moreover, in data set [1] (in vivo), the “change of state of needle leaf (August)” value is listed as “no change” and the “change of state of needle leaf (November)” value was “no change”.
As for “polyoxyethylene sorbitan oleic acid ester [Example 6]”, in data set [1] (setting [2]), the “change of state of male flower bud (August)” value was “browned”. Moreover, the “change of state of male flower bud (November)” value in data set [1] (setting [3]) is recorded as “browned”.
